Source: PMC11213733, “Computational approaches identify a transcriptomic fingerprint of drug-induced structural cardiotoxicity” (Cell Biology and Toxicology, 2024)
Where two headings read alike, the source gives them in different places.

Key:
[1] = system: cardiac microtissues; assay: Targeted qRT-PCR of ATAD3C, CDH13, IL6, PTX3, SLC7A5, UCHL1 in cardiac microtissues; format: cell-based, human; settings: Sorafenib 3.74 µM, Sunitinib 3.53 µM, Dasatinib 10.8 µM; for activity at 3.53 µM: Homo sapiens, read-out: % of control
Description: The experiment was performed with three technical replicates across 1-2 independent replicates.

[2] = ref FDA label, cited from earlier work
[3] = system: cardiac microtissues; assay: Ingenuity Pathway Analysis over-representation of differentially expressed genes (activation Z-score); format: cell-based, human; settings: 48hr high; Group 2

In the case of `CCN(CC)CCNC(=O)c1c(C)[nH]c(/C=C2\C(=O)Nc3ccc(F)cc32)c1C` [Sunitinib Malate], the activity at 3.53 µM ([1]; gene ATAD3C, Run 1) was 85.2%, the activity at 3.53 µM ([1]; gene CDH13, Run 1) was 81.7% and the activity at 3.53 µM ([1]; gene CDH13, Run 2) was 32.5%. The activity at 3.53 µM ([1]; gene IL6, Run 1) was 18.3%, the activity at 3.53 µM ([1]; gene IL6, Run 2) was 3.18% and the activity at 3.53 µM ([1]; gene PTX3, Run 1) was 46.8%. The activity at 3.53 µM ([1]; gene PTX3, Run 2) was 18.6%, the activity at 3.53 µM ([1]; gene SLC7A5, Run 1) was 87.2% and the activity at 3.53 µM ([1]; gene SLC7A5, Run 2) was 7.07%. The activity at 3.53 µM ([1]; gene UCHL1, Run 1) was 59.4%, the activity at 3.53 µM ([1]; gene UCHL1, Run 2) was 18.6% and the “2^-ΔΔCt of Individual reps, Treated 1” value ([1]; gene ATAD3C, Run 1) was 0.6771. The “2^-ΔΔCt of Individual reps, Treated 2” value ([1]; gene ATAD3C, Run 1) was 0.9498, the “2^-ΔΔCt of Individual reps, Treated 3” value ([1]; gene ATAD3C, Run 1) was 0.9298 and the “Average 2^-ΔΔCt, Treated” value ([1]; gene ATAD3C, Run 1) was 0.8522. For the same compound, the “2^-ΔΔCt of Individual reps, Treated 1” value ([1]; gene CDH13, Run 1) was 0.8001, the “2^-ΔΔCt of Individual reps, Treated 2” value ([1]; gene CDH13, Run 1) was 0.8203 and the “2^-ΔΔCt of Individual reps, Treated 3” value ([1]; gene CDH13, Run 1) was 0.8552. For the same compound, the “Average 2^-ΔΔCt, Treated” value ([1]; gene CDH13, Run 1) was 0.8252, the “2^-ΔΔCt of Individual reps, Treated 1” value ([1]; gene CDH13, Run 2) was 0.3506 and the “2^-ΔΔCt of Individual reps, Treated 2” value ([1]; gene CDH13, Run 2) was 0.356. The “2^-ΔΔCt of Individual reps, Treated 3” value ([1]; gene CDH13, Run 2) was 0.3542, the “Average 2^-ΔΔCt, Treated” value ([1]; gene CDH13, Run 2) was 0.3536 and the “2^-ΔΔCt of Individual reps, Treated 1” value ([1]; gene IL6, Run 1) was 0.1962. For the same compound, the “2^-ΔΔCt of Individual reps, Treated 2” value ([1]; gene IL6, Run 1) was 0.1722, the “2^-ΔΔCt of Individual reps, Treated 3” value ([1]; gene IL6, Run 1) was 0.1837 and the “Average 2^-ΔΔCt, Treated” value ([1]; gene IL6, Run 1) was 0.184. For the same compound, the “2^-ΔΔCt of Individual reps, Treated 1” value ([1]; gene IL6, Run 2) was 0.1296, the “2^-ΔΔCt of Individual reps, Treated 2” value ([1]; gene IL6, Run 2) was 0.008 and the “2^-ΔΔCt of Individual reps, Treated 3” value ([1]; gene IL6, Run 2) was 0.00254. The “Average 2^-ΔΔCt, Treated” value ([1]; gene IL6, Run 2) was 0.04671, the “2^-ΔΔCt of Individual reps, Treated 1” value ([1]; gene PTX3, Run 1) was 0.5127 and the “2^-ΔΔCt of Individual reps, Treated 2” value ([1]; gene PTX3, Run 1) was 0.4851. The “2^-ΔΔCt of Individual reps, Treated 3” value ([1]; gene PTX3, Run 1) was 0.4283, the “Average 2^-ΔΔCt, Treated” value ([1]; gene PTX3, Run 1) was 0.4754 and the “2^-ΔΔCt of Individual reps, Treated 1” value ([1]; gene PTX3, Run 2) was 0.364. The “2^-ΔΔCt of Individual reps, Treated 2” value ([1]; gene PTX3, Run 2) was 0.159, the “2^-ΔΔCt of Individual reps, Treated 3” value ([1]; gene PTX3, Run 2) was 0.09578 and the “Average 2^-ΔΔCt, Treated” value ([1]; gene PTX3, Run 2) was 0.2063. The “2^-ΔΔCt of Individual reps, Treated 1” value ([1]; gene SLC7A5, Run 1) was 0.9373, the “2^-ΔΔCt of Individual reps, Treated 2” value ([1]; gene SLC7A5, Run 1) was 0.8504 and the “2^-ΔΔCt of Individual reps, Treated 3” value ([1]; gene SLC7A5, Run 1) was 0.8586. For the same compound, the “Average 2^-ΔΔCt, Treated” value ([1]; gene SLC7A5, Run 1) was 0.8821, the “2^-ΔΔCt of Individual reps, Treated 1” value ([1]; gene SLC7A5, Run 2) was 0.1881 and the “2^-ΔΔCt of Individual reps, Treated 2” value ([1]; gene SLC7A5, Run 2) was 0.06312. For the same compound, the “2^-ΔΔCt of Individual reps, Treated 3” value ([1]; gene SLC7A5, Run 2) was 0.06588, the “Average 2^-ΔΔCt, Treated” value ([1]; gene SLC7A5, Run 2) was 0.1057 and the “2^-ΔΔCt of Individual reps, Treated 1” value ([1]; gene UCHL1, Run 1) was 0.6206. The “2^-ΔΔCt of Individual reps, Treated 2” value ([1]; gene UCHL1, Run 1) was 0.6021, the “2^-ΔΔCt of Individual reps, Treated 3” value ([1]; gene UCHL1, Run 1) was 0.5702 and the “Average 2^-ΔΔCt, Treated” value ([1]; gene UCHL1, Run 1) was 0.5976. The “2^-ΔΔCt of Individual reps, Treated 1” value ([1]; gene UCHL1, Run 2) was 0.3214, the “2^-ΔΔCt of Individual reps, Treated 2” value ([1]; gene UCHL1, Run 2) was 0.1175 and the “2^-ΔΔCt of Individual reps, Treated 3” value ([1]; gene UCHL1, Run 2) was 0.1882. For the same compound, the “Average 2^-ΔΔCt, Treated” value ([1]; gene UCHL1, Run 2) was 0.209, the “Structural cardiotoxin?” value ([2]; FDA label references heart failure or a decrease in left ventricular ejection fraction) was “Y” and the “Functional cardiotoxin?” value ([2]; compound annotation) was “Y”. The “activation Z-score: Actin Cytoskeleton Signaling” value [3] was -3.317, the “activation Z-score: Actin Nucleation by ARP-WASP Complex” value [3] was -2.646 and the “activation Z-score: Acute Phase Response Signaling” value [3] was -2.84. For the same compound, the “activation Z-score: Adrenomedullin signaling pathway” value [3] was -2.53, the “activation Z-score: Apelin Cardiac Fibroblast Signaling Pathway” value [3] was 2.236 and the “activation Z-score: Apelin Liver Signaling Pathway” value [3] was -2.449. The “activation Z-score: Aryl Hydrocarbon Receptor Signaling” value [3] was -0.632, the “activation Z-score: Breast Cancer Regulation by Stathmin1” value [3] was -3 and the “activation Z-score: CD40 Signaling” value [3] was -2.
